Tests used:
[1] = target: T1, Stim1 or Orai1 puncta (Homo sapiens, UniProt Q96D31); test: Orai1 and Stim1 puncta in HEK293T cells overexpressing CFP-Orai1/Stim1-mCherry after thapsigargin; format: cell-based; settings: 10 μM pretreatment 30 min, 1 μM thapsigargin 15 min
T1 construct: expressed in transfected cells; host or cells: HEK293T
Protocol: FIG. 1A, FIG. 1B, FIG. 1C, FIG. 1D, FIG. 1E, FIG. 1F, FIG. 1G, FIG. 1H, FIG. 1I, FIG. 1J, FIG. 1K, FIG. 1L, FIG. 1M, and FIG. 1N show WRG-28 and atovaquone (Av) suppress the activation of DDR2 and calcium release-activated calcium (CRAC) channel. FIG. 1A indicates HEK293T cells were transiently overexpressed with DDR2 and then pretreated with different compounds (10 μM), including WRG-28, Av, donepezil hydrochloride (Dh), terazosin hydrochloride (Th), verapamil and flecainide for 30 minutes. Verapamil and flecainide were used as negative control here. After that, cells were treated with 50 μg/mL type I collagen for 12 hours. Cell lysates were harvested and subjected to Western blot analysis with antibodies against phosphotyrosine antibody (clone 4G10), DDR2, and β-actin. […] CRAC channel activity was evaluated by applying 1 μM thapsigargin (Thap.) in a calcium-free solution to deplete the endoplasmic reticulum calcium store, followed by the reintroduction of 2 mM Ca^2+ in an external solution. The concentration of cytosolic calcium ions increases as calcium flows through the CRAC channel, leading to the second peak in cytosolic calcium waves. […] Further analyses are presented in FIG. 1I and FIG. 1J, where the second peak of each wave and rate of entry were analyzed. […] The Orai1 and Stim1 puncta in HEK293T cells overexpressed with CFP-Orai1/Stim1-mCherry were assessed. […]

[2] = tested on: rat hepatic stellate cells (HSC-T6); test: TGF-β1-induced activation of rat hepatic stellate cells (Western blot); format: cell-based; settings: HSC-T6, 10 μM co-treatment, 24 hours
Protocol: Cells were co-treated with various compounds (10 μM) and TGF-β1 for 24 hours. Following this, cell lysates were harvested, and the protein expression was assessed by Western blot analysis. FIG. 3D depicts the examination of TGF-β1-induced fibronectin deposition and α-SMA expression in HCF treated with 10 μM of DMSO, BTP2, WRG-28, or Av through immunofluorescence staining. The images were captured using a confocal microscope, the Olympus FV-1000. FIG. 3E, FIG. 3F, and FIG. 3G illustrate the assessment of CRAC channel activity in HCF, MRC5, and rat HSC-T6. These cells were pretreated with 10 μM of BTP2, WRG-28, or Av for 45 min. The evaluation included measuring the second peak of each calcium wave and the rate of entry. […]
Cell lysates were harvested in RIPA buffer (150 mM NaCl, 1 mM EGTA, 50 mM Tris pH 7.4, 10% glycerol, 1% Triton X-100, 1% sodium deoxycholate, 0.1% SDS, and protease inhibitor cocktail) and collected from culture dish with cell scrapers. […] The protein expression levels were assessed by specific primary antibodies, including antibodies against phosphotyrosine (clone 4G10; Millipore), DDR2 (R&D), α-SMA (Sigma), Collagen 1a1 (Boster), E-cadherin (BD Biosciences), SGLT2 (Proteintech), NHE1 (Novus) and β-actin (Clone C4, Millipore), followed by incubating with secondary antibodies conjugated with HRP and detected by ECL kit (Thermo Scientific). […]

T1 sequence (Q96D31 whole entry): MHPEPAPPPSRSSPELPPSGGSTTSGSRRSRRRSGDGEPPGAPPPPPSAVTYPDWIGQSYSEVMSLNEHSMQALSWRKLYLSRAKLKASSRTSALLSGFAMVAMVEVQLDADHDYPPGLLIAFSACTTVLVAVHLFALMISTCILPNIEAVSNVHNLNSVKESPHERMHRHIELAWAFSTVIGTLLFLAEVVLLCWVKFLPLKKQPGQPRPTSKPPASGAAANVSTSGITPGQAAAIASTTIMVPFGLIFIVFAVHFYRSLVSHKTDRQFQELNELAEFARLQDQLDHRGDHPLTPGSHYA

Cc1nnsc1C(=O)Nc1ccc(-n2nc(C(F)(F)F)cc2C(F)(F)F)cc1 [BTP2]
formation of Stim1 or Orai1 puncta induced by store depletion [1]: unaffected
upregulation of α-SMA induced by TGF-β1 [2]: suppressed

CCNS(=O)(=O)c1ccc(COc2ccc3nc4ccc(=O)cc-4oc3c2)cc1 [WRG-28]
formation of Stim1 or Orai1 puncta induced by store depletion [1]: unaffected
upregulation of α-SMA induced by TGF-β1 [2]: suppressed

Source: patent publication US20250339443A1, “METHOD FOR TREATING OR PREVENTING CALCIUM RELEASE-ACTIVATED CALCIUM CHANNEL OR DISCOIDIN DOMAIN RECEPTOR 2 RELATED DISORDERS OR CONDITIONS” (LumiSTAR Biotechnology, Inc., priority 2023, published 2025)
